Source: ChEMBL document CHEMBL4433214, “Investigation around the Oxadiazole Core in the Discovery of a New Chemotype of Potent and Selective FXR Antagonists” (ACS Med Chem Lett, 2019)
In brackets after ≈: the same amount, converted by molar mass. Activity calls are given as the source filed them. The rule behind the calls is not given here.

Tests used:
[1] = biological target: T1, Bile acid receptor (Homo sapiens) (UniProt Q96RI1); test: Antagonist activity at human FXR in HepG2 cells assessed as reversal of CDCA-induced increase in OSTalpha mRNA expression level at 0.1 to 1 uM dosed after 24 hrs starvation followed by CDCA addition and measured after 18 hrs by RT-PCR analysis
T1 sequence (whole entry): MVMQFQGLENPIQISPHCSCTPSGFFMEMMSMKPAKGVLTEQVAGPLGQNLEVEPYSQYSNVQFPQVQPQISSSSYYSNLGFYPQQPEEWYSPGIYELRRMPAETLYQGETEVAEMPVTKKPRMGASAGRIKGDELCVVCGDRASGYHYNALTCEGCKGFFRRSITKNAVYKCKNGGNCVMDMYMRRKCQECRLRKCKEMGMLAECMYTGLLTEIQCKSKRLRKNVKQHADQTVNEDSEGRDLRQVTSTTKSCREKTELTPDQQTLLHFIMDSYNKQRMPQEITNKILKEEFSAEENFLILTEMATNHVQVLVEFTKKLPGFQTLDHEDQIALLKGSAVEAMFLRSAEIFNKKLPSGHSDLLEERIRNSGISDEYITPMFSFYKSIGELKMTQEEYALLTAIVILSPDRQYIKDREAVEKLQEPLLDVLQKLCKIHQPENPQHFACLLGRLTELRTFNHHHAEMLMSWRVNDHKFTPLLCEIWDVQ

[2] = biological target: T1, Bile acid receptor (Homo sapiens); test: Transactivation of human FXR transfected in HepG2 cells at 10 uM by luciferase reporter assay; assay type: cell-based
[3] = biological target: T1, Bile acid receptor (Homo sapiens); test: Antagonist activity at human FXR transfected in HepG2 cells assessed as inhibition of CDCA-induced receptor transactivation at 10 uM by luciferase reporter assay relative to control; assay type: cell-based; design: scale not given: the % may be the effect or the level left
Bile acid receptor = biological target: T2, Bile acid receptor (Homo sapiens, UniProt Q96RI1); test: Antagonist activity at human FXR transfected in HepG2 cells assessed as inhibition of CDCA-induced receptor transactivation by luciferase reporter assay; assay type: cell-based
T2 sequence (Q96RI1 whole entry): T1 sequence (whole entry)

[4] = biological target: T1, Bile acid receptor (Homo sapiens); test: Antagonist activity at human FXR assessed as reduction in CDCA-induced FXR-SRC-1 recruitment at 500 to 1000 nM incubated for 30 mins by alpha screen assay
[5] = biological target: T3, Oxysterols receptor LXR-alpha (Homo sapiens) (UniProt Q13133); test: Agonist activity at human LXRalpha transfected in HepG2 at 10 uM by luciferase reporter assay; assay type: cell-based
T3 sequence (whole entry): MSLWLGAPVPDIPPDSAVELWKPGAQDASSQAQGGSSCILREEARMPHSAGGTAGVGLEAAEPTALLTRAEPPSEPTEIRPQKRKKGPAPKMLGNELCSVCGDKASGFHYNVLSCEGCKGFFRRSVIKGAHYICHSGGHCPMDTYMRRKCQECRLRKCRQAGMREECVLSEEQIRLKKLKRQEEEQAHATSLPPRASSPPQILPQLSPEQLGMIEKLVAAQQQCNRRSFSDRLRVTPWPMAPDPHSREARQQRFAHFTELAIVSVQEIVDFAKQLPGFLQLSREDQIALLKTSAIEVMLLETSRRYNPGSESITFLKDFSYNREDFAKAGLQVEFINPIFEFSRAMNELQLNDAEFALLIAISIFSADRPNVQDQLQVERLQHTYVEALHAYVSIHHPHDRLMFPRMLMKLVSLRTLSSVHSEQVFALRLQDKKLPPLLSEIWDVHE

[6] = biological target: T4, Peroxisome proliferator-activated receptor gamma (Homo sapiens) (UniProt P37231); test: Agonist activity at human PPARgamma transfected in HepG2 at 10 uM by luciferase reporter assay; assay type: cell-based
T4 sequence (whole entry): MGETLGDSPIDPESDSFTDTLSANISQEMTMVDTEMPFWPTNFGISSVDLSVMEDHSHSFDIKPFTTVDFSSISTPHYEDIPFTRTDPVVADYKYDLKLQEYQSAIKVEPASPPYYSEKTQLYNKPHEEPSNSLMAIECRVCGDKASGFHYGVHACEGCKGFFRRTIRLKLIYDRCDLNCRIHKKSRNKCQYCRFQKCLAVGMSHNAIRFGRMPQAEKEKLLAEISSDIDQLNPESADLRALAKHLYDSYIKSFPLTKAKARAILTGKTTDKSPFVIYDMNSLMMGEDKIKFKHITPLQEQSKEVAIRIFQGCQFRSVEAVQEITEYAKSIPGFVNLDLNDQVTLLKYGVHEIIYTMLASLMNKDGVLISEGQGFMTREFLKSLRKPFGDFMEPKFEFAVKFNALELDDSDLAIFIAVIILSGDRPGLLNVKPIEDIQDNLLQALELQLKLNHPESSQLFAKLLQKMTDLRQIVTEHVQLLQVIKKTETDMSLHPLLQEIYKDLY

[7] = biological target: T3, Oxysterols receptor LXR-alpha (Homo sapiens); test: Antagonist activity at human LXRalpha transfected in HepG2 at 5 uM in presence of LXRalpha agonist GW3965 by luciferase reporter assay; assay type: cell-based
[8] = Aqueous solubility of compound in pH 7.4 PBS buffer incubated for 24 hrs under gently shaking condition by LC-MS/MS analysis; assay type: physicochemical
[9] = Lipophilicity, log D of the compound by LC-MS/MS analysis; assay type: physicochemical; conditions: octanol/water
[10] = biological target: T1, Bile acid receptor (Homo sapiens); test: Antagonist activity at human FXR in HepG2 cells assessed as reversal of CDCA-induced increase in PEPCK mRNA expression level at 0.1 to 1 uM dosed after 24 hrs starvation followed by CDCA addition and measured after 18 hrs by RT-PCR analysis
[11] = biological target: T1, Bile acid receptor (Homo sapiens); test: Antagonist activity at human FXR in HepG2 cells assessed as reversal of CDCA-induced increase in SHP mRNA expression level at 0.1 to 1 uM dosed after 24 hrs starvation followed by CDCA addition and measured after 18 hrs by RT-PCR analysis
[12] = biological target: T1, Bile acid receptor (Homo sapiens); test: Antagonist activity at human FXR in HepG2 cells assessed as reversal of CDCA-induced reduction in CYP7A1 mRNA expression level at 0.1 to 1 uM dosed after 24 hrs starvation followed by CDCA addition and measured after 18 hrs by RT-PCR analysis
[13] = Half life in rat liver microsomes at 1 uM incubated for 2 hrs by LC-MS/MS analysis
[14] = Intrinsic clearance in rat liver microsomes at 1 uM incubated for 2 hrs by LC-MS/MS analysis; conditions: read-out: CLH
[15] = Metabolic stability in rat liver microsomes assessed as parent compound remaining at 1 uM measured after 40 mins by LC-MS/MS analysis

c1ccc2cc(-c3noc(C4CCNCC4)n3)ccc2c1
Activity [1]: Active | Activity [2]: inactive | Activity [3]: 80% | IC50 (Bile acid receptor): 580 nM | inhibition [4]: Active | Activity [5]: inactive | Activity [6]: inactive | Activity [7]: inactive | solubility at 24 h [8]: 200 µM (≈ 55.9 µg/mL) | logD [9]: 0.34 | Activity [10]: Active | Activity [11]: Active | Activity [12]: Active | half-life at 1 µM [13]: 1.86 h | microsomal CLint at 1 µM [14]: 20.7 µL/min/mg | remaining at 40 min, 1 µM [15]: 76.2%
